Measurements as given in patent publication US20240246942A1, “KINASE INHIBITORS FOR THE TREATMENT OF NEURODEGENERATIVE DISEASES” (priority 2020, published 2024).

Assays:
Experiment in all cases: biochemical
[1] = biological target: T1, panel of 374 wild-type kinases (Homo sapiens, UniProt Q06418); details: read-out: % Enzyme Activity (relative to DMSO controls), kinase TYRO3/SKY
T1 construct: purchased Reaction Biology Corporation
T1 sequence (Q06418 41-890): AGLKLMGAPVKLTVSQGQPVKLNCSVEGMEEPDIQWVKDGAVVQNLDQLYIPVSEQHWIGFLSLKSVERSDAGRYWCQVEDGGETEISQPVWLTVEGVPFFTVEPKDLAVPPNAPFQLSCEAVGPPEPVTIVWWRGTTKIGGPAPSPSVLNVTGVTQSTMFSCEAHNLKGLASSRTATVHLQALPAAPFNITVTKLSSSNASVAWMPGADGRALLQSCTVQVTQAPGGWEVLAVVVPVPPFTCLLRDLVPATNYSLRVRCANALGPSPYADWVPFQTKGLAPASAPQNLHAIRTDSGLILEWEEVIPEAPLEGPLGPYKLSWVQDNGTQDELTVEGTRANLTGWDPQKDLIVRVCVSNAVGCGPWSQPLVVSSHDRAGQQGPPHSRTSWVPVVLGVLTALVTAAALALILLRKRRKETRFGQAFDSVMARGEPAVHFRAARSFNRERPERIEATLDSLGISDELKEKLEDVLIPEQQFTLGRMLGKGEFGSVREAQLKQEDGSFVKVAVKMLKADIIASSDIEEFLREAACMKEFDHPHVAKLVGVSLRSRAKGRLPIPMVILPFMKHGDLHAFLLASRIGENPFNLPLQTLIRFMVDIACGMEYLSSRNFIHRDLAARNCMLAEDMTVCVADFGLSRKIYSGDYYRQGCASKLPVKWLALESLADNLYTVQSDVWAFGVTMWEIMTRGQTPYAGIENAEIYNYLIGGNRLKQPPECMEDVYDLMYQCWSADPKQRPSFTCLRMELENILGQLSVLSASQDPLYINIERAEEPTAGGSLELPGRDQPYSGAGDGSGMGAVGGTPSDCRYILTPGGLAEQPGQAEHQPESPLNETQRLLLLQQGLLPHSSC

[2] = biological target: T2, panel of 374 wild-type kinases (Homo sapiens, UniProt P51956); details: read-out: % Enzyme Activity (relative to DMSO controls), NEK3
T2 construct: purchased Reaction Biology Corporation
T2 sequence (P51956 1-506): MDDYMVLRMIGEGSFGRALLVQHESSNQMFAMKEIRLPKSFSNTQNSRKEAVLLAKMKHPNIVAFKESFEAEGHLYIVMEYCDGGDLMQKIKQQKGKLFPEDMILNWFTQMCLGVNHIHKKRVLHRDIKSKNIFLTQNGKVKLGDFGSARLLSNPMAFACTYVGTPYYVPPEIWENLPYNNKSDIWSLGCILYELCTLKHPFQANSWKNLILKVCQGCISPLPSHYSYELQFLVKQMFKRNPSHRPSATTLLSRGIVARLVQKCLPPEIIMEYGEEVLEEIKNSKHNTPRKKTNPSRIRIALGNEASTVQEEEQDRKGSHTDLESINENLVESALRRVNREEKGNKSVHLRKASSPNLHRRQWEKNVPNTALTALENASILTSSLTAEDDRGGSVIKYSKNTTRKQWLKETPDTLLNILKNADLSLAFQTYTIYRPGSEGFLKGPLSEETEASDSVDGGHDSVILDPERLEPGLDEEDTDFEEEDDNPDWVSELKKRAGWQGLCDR

[3] = biological target: T3, panel of 374 wild-type kinases (Homo sapiens, UniProt O43318); details: read-out: % Enzyme Activity (relative to DMSO controls), kinase TAK1
T3 construct: purchased Reaction Biology Corporation
T3 sequence (O43318 1-606): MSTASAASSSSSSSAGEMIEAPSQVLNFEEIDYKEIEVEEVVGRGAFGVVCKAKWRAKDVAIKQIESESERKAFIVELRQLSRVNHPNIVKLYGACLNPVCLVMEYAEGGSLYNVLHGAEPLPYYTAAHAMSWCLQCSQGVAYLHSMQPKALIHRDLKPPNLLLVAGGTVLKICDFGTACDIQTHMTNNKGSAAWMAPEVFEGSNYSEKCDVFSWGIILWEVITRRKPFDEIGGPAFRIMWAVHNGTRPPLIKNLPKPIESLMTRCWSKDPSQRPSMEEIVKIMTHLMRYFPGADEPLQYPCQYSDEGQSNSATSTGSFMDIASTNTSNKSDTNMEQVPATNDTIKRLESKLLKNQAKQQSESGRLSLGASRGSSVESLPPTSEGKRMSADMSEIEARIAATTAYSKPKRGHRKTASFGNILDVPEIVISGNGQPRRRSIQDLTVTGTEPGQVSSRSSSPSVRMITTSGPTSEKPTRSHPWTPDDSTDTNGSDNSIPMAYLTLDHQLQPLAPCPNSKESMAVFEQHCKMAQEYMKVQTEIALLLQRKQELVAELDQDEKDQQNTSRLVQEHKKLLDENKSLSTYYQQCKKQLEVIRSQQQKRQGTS

[4] = biological target: T4, panel of 374 wild-type kinases (Homo sapiens, UniProt P52564); details: read-out: % Enzyme Activity (relative to DMSO controls), MKK6
T4 construct: purchased Reaction Biology Corporation
T4 sequence (P52564 1-334): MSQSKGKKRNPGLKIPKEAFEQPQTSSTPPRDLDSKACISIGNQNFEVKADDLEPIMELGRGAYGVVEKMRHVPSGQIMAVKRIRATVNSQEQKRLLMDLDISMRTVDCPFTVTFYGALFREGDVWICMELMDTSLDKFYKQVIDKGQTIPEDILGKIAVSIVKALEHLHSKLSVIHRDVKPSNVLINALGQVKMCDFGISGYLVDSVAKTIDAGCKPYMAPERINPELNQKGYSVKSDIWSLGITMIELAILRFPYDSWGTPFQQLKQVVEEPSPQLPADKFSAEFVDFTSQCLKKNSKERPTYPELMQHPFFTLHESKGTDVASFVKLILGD

[5] = biological target: T5, panel of 374 wild-type kinases (Homo sapiens, UniProt Q15831); details: read-out: % Enzyme Activity (relative to DMSO controls), LKB1
T5 construct: purchased Reaction Biology Corporation
T5 sequence (Q15831 1-433): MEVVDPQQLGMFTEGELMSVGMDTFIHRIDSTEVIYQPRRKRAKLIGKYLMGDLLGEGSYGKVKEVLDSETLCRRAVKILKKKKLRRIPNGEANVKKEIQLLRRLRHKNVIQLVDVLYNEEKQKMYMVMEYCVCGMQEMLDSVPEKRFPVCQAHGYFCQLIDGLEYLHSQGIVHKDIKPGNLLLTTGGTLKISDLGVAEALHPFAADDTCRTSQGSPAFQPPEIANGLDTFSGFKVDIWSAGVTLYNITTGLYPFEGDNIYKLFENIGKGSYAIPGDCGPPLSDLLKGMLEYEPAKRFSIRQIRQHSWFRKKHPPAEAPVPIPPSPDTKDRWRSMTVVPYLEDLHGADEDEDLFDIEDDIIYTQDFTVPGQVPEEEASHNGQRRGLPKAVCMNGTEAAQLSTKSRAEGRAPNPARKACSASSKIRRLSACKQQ

Compound	remaining activity at 5 µM [1] [%]	remaining activity at 5 µM [2] [%]	remaining activity at 5 µM [3] [%]	remaining activity at 5 µM [4] [%]	remaining activity at 5 µM [5] [%]	remaining activity at 10 µM ([1]; 10 uM) [%]	remaining activity at 10 µM ([2]; 10 uM) [%]	remaining activity at 10 µM ([3]; 10 uM) [%]	remaining activity at 10 µM ([4]; 10 uM) [%]	remaining activity at 10 µM ([5]; 10 uM) [%]
O=C(Nc1cnn(-c2csc(C(=O)NC3COC3)c2)c1)Nc1ccccc1Cl [Compound 17, 4-(4-(3-(2-chlorophenyl)ureido)-1H-pyrazol-1-yl)-N-(oxetan-3-yl)thiophene-2-carboxamide]	75.4	103	98	96.4	118					
O=C(Nc1cnn(-c2csc(C(=O)NC3COC3)c2)c1)Nc1c(F)cccc1Cl [Compound 25, 4-(4-(3-(2-chloro-6-fluorophenyl)ureido)-1H-pyrazol-1-yl)-N-(oxetan-3-yl)thiophene-2-carboxamide]	68.4	87.2	109	94.4	94.7					
Cc1sc(C(=O)NC2COC2)cc1-n1cc(NC(=O)Nc2c(F)cccc2Cl)cn1 [Compound 27, 4-(4-(3-(2-chloro-6-fluorophenyl)ureido)-1H-pyrazol-1-yl)-5-methyl-N-(oxetan-3-yl)thiophene-2-carboxamide]						98.8	87.5	98.4	86.4	97.6
